Laboratory results: ChEMBL document CHEMBL5335853, “Acremosides A-G, Sugar Alcohol-Conjugated Acyclic Sesquiterpenes from a Sponge-Derived Acremonium Species” (J Nat Prod, 2024)

Tests used:
Pseudomonas aeruginosa = assay: Antimicrobial activity against Pseudomonas aeruginosa ATCC 27853 assessed as inhibition of microbial growth by CLSI protocol based two-fold serial broth microdilution method; format: functional
[1] = Selectivity index, ratio of CC50 for cytotoxicity against human Huh7.5 cells to EC50 for antiviral activity against HCV infected in human Huh7.5 cells; format: toxicity, cell-based; settings: read-out: Ratio CC50/EC50
Edwardsiella ictaluri = assay: Antimicrobial activity against Edwardsiella ictaluri ATCC 33202 assessed as inhibition of microbial growth by CLSI protocol based two-fold serial broth microdilution method; format: functional
Klebsiella pneumoniae = assay: Antimicrobial activity against Klebsiella pneumoniae ATCC 700603 assessed as inhibition of microbial growth by CLSI protocol based two-fold serial broth microdilution method; format: functional
Hepatitis C virus = assay: Antiviral activity against HCV infected in human Huh-7.5 cells assessed as inhibition of viral replication incubated for 72 hrs by qRT-PCR analysis; format: functional, organism-based, Hepacivirus hominis; settings: Huh7.5, 72 h
[2] = system: Staphylococcus epidermidis; assay: Antimicrobial activity against Staphylococcus epidermidis ATCC 12228 assessed as inhibition of microbial growth by CLSI protocol based two-fold serial broth microdilution method; format: functional
[3] = Cytotoxicity against human Huh7.5 cells assessed as reduction in cell viability by CCK-8 assay; format: toxicity, cell-based, Huh-7.5
Staphylococcus aureus = assay: Antimicrobial activity against Staphylococcus aureus ATCC 29213 assessed as inhibition of microbial growth by CLSI protocol based two-fold serial broth microdilution method; format: functional
Escherichia coli = assay: Antimicrobial activity against Escherichia coli ATCC 25922 assessed as inhibition of microbial growth by CLSI protocol based two-fold serial broth microdilution method; format: functional
Edwardsiella tarda = assay: Antimicrobial activity against Edwardsiella tarda ATCC 15947 assessed as inhibition of microbial growth by CLSI protocol based two-fold serial broth microdilution method; format: functional
Bacillus subtilis = assay: Antimicrobial activity against Bacillus subtilis ATCC 6633 assessed as inhibition of microbial growth by CLSI protocol based two-fold serial broth microdilution method; format: functional

Structure (SMILES)	MIC (Pseudomonas aeruginosa) [µg/mL]	selectivity ratio [1]	MIC (Edwardsiella ictaluri) [µg/mL]	MIC (Klebsiella pneumoniae) [µg/mL]	EC50 (Hepatitis C virus) [µM]	MIC [2] [µg/mL]	CC50 [3] [µM]	MIC (Staphylococcus aureus) [µg/mL]	MIC (Escherichia coli) [µg/mL]	MIC (Edwardsiella tarda) [µg/mL]	MIC (Bacillus subtilis) [µg/mL]
CC(C)=CCC[C@](C)(O)[C@H](O)C[C@@H](OC(=O)Cc1ccccc1)/C(C)=C/CO[C@@H]([C@H](O)[C@H](O)CO)[C@H](O)CO	≥ 128	> 42	≥ 128	≥ 128	4.8	≥ 128	> 200	≥ 128	≥ 128	≥ 128	≥ 128
CC(C)OC(=O)[C@H](C)N[P@](=O)(OC[C@H]1O[C@@H](n2ccc(=O)[nH]c2=O)[C@](C)(F)[C@@H]1O)Oc1ccccc1 [SOFOSBUVIR]	–	> 2220	–	–	0.09	–	> 200	–	–	–	–
CC(C)=C[C@@H]1C[C@](C)(O)[C@@H](C[C@@H](OC(=O)Cc2ccccc2)/C(C)=C/CO[C@@H]([C@H](O)[C@H](O)CO)[C@H](O)CO)O1	≥ 128	> 23	≥ 128	≥ 128	8.8	≥ 128	> 200	≥ 128	≥ 128	≥ 128	≥ 128
COC[C@@H](O)[C@@H](OC/C=C(\C)[C@@H](C[C@@H](O)[C@@](C)(O)CCC=C(C)C)OC(=O)Cc1ccccc1)[C@H](O)[C@H](O)CO	≥ 128	> 4	≥ 128	≥ 128	14	≥ 128	55	≥ 128	≥ 128	≥ 128	≥ 128
COC[C@@H](O)[C@@H](OC/C=C(\C)[C@@H](C[C@H]1O[C@H](C=C(C)C)C[C@]1(C)O)OC(=O)Cc1ccccc1)[C@H](O)[C@H](O)CO	≥ 128	> 17	≥ 128	≥ 128	12	≥ 128	> 200	≥ 128	≥ 128	≥ 128	≥ 128
CC(C)=CCC[C@](C)(O)[C@H](O)C[C@@H](OC(=O)Cc1ccccc1)/C(C)=C/COC([C@H](O)CO)[C@H](O)CO	≥ 128	> 31	≥ 128	≥ 128	6.5	≥ 128	> 200	≥ 128	≥ 128	≥ 128	≥ 128
CC(C)=CCC[C@](C)(O)[C@H](O)C[C@@H](OC(=O)Cc1ccccc1)/C(C)=C/CO[C@@H]([C@H](O)[C@@H](C)O)[C@H](O)CO	≥ 128	> 25	≥ 128	≥ 128	7.9	≥ 128	> 200	≥ 128	≥ 128	≥ 128	≥ 128
CC(C)=C[C@H]1C[C@](C)(O)[C@@H](C[C@@H](OC(=O)Cc2ccccc2)/C(C)=C/CO[C@@H]([C@H](O)[C@H](O)CO)[C@H](O)CO)O1	≥ 128	> 12	≥ 128	≥ 128	16	≥ 128	> 200	≥ 128	≥ 128	≥ 128	≥ 128
